Data as given in patent US20060166941A1, “Treatment and/or prevention of non-viral epithelial damage” (Epistem Limited, priority 2003, published 2006).
Values joined by “and” are separate entries in the source; they are usually repeats but may differ in a detail not shown here. Equal entries are not always repeated. Structures can show the parent of a compound that is named as a salt.

What was measured:
[1] = test system: clonogenic stem cells of the digestive epithelium; experiment: In vivo protection of intestinal epithelium clonogenic stem cells, radiation damage, independent experiment 2; parameters: species or system mice; conditions: for corrected crypts/circumference / no. crypts/circumference: day 4; for Protection Factor: 13Gy, corrected crypts treated / vehicle
Source text: In Vivo Protection of Intestinal Epithelium Clonogenic Stem Cells—Radiation Damage Independent Experiment 2.
The ability of foscarnet (phosphonoformic acid trisodium salt hexahydrate) to prevent radiological damage to clonogenic stem cells of the digestive epithelium was illustrated by the following experiment.
The model of radiological insult used was treatment with 13 Gy X-ray whole body radiation at a dose rate of 0.7 Gy/minute. Such radiation treatment provides a model of radiotherapy administered to patients undergoing treatment for cancer.
Three experimental groups, each of six mice, were established as set out below:
Group 1: Received intra-peritoneal injection, containing 50 mg foscarnet/kilogram bodyweight, in sterile water, one hour prior to radiation treatment. Received one further identical injection on each of the three days following radiation treatment.
Group 2: Received intra-peritoneal injection, containing 25 mg foscarnet/kilogram bodyweight, in sterile water, one hour prior to radiation treatment. Received one further identical injection on each of the three days following radiation treatment.
Group 3: Vehicle control. Received intra-peritoneal injection, of sterile water, one hour prior to radiation treatment. Received one further identical injection on each of the three days following radiation treatment.
On the fourth day after treatment the animals of each group were killed, and intestinal tissue harvested for histological analysis. Tissue sections were stained with haemotoxylin and eosin, and were analysed for the presence of regenerating intestinal crypts. Regenerating intestinal crypts are derived from one or more surviving clonogenic stem cells, whereas sterilised crypts (containing no surviving stem cells) disappear within two days of irradiation. The number of regenerating crypts per intestinal circumference was counted, and the mean crypt width measured. Scores for each animal were then corrected to account for the probability of preferentially scoring larger crypts according to the following equation: [formula]
For each treatment a Protection Factor was calculated using the following equation: corrected crypts/circumference treated corrected crypts/circumference untreated (vehicle)

oral mucosa = experiment: In vivo protection of oral mucosa following chemotherapy (5FU) damage, ventral tongue cellularity; parameters: species or system mice; conditions: 50 mg/kg intra-peritoneal 1 hr prior to 5FU (400 mg/kg x 2) and daily for three days; versus vehicle
Experimental: In Vivo Protection of Oral Mucosa Following Chemotherapy Damage. The ability of foscarnet (phosphonoformic acid trisodium salt hexahydrate) to prevent cytotoxic damage to oral mucosa was illustrated by the following experiment. The model of cytotoxic insult used was treatment with 2 doses of 400 mg/kilogram bodyweight 5-Flurouracil 6 hours apart. Such cytotoxic treatment provides a model of chemotherapy administered to patients undergoing treatment for cancer. Experimental groups, each of five mice, were established as set out below: Group 2: Received intra-peritoneal injection, containing 50 mg foscarnet/kilogram bodyweight, in sterile water, one hour prior to the first cytotoxic treatment (400 mg 5-Flurouracil/kilogram bodyweight). Received one further identical injection of foscarnet (50 mg/kilogram bodyweight) on each of the three days following cytotoxic treatment. […] Tissue sections were stained with thionin and using a Zeiss AxioHOME the number of cells were assessed in both the basal and suprabasal layers of the ventral surface of the tongue. The area from the basal layer to the stratum corneum stratum granulosum interface was measured along with the length of the basal layer. […] From these measurements the damage that the 5FU had caused to the tongue could be assessed as overall cellularity of the tongue or the total number of cells/unit area (mm^2). […]

[2] = 13Gy plus 25 mg foscarnet -1 hr, 1, 2, 3 day, group Average
[3] = 13Gy plus 25 mg foscarnet -1 hr, 1, 2, 3 day, individual mice
[4] = 13Gy plus 50 mg foscarnet -1 hr, 1, 2, 3 day, group Average
[5] = 13Gy plus 50 mg foscarnet -1 hr, 1, 2, 3 day, individual mice

SMILES: O=C(O)P(=O)(O)O [foscarnet, phosphonoformic acid trisodium salt hexahydrate]
- corrected crypts/circumference [1, 2]: 2.8
- no. crypts/circumference [1, 2]: 5.7
- corrected crypts/circumference [1, 3]: 1.4 and 2.0 and 2.7 and 4.4 and 3.0 and 3.3
- no. crypts/circumference [1, 3]: 2.6 and 4.1 and 5.4 and 9.4 and 6.3 and 6.4
- corrected crypts/circumference [1, 4]: 4.7
- no. crypts/circumference [1, 4]: 8.8
- corrected crypts/circumference [1, 5]: 6.5 and 4.4 and 2.7 and 1.9 and 5.4 and 7.5
- no. crypts/circumference [1, 5]: 11.8 and 8.7 and 5.2 and 4.1 and 9.6 and 13.2
- Protection Factor ([1]; 25 mg foscarnet -1 hr, 1, 2, 3 day): 1.12
- Protection Factor ([1]; 50 mg foscarnet -1 hr, 1, 2, 3 day): 1.88
- more crypts compared to mice treated with vehicle alone ([1]; 13 Gy, 50 mg/kg foscarnet): ~50%
- more small intestinal clonogenic stem cells survived ([1]; 13 Gy, 50 mg/kg foscarnet): at least 50%
- numbers of intestinal crypts after exposure to radiation ([1]; Groups 1 and 2 (50 mg foscarnet and 25 mg foscarnet), 13 Gy): increased numbers of intestinal crypts
- numbers of cells per unit area in the epithelium covering the ventral surface of the tongue (FIG. 4) (oral mucosa): extra cells per unit area gained
